# In ChEMBL document CHEMBL5576053, “Nonclassical Zwitterions as a Design Principle to Reduce Lipophilicity without Impacting Permeability” (J Med Chem, 2024):
# Key:
# Assay type in all cases: physicochemical
# [1] = Basic ionization constant, pKa of the compound
# [2] = Acidic ionization constant, pKa of the compound
# [3] = Ionization constant, pKa of compound at pH 1 to 5
# [4] = Ionization constant, pKa of compound at pH 5 to 10
# [5] = Ionization constant, pKa of compound
# [6] = Acidic ionization constant, pKa of the compound by potentiometric titration analysis
# [7] = 1-octanol/water partition coefficient, acidic logP of compound by shake flask method
SMILES,pKa [1],pKa [2],other results
CN1C(C(=O)Nc2nccs2)=C(O)c2ccccc2S1(=O)=O [SUDOXICAM],< 2,3.1,–
CC(C)(C)NC(=O)c1ccccn1,2.1,–,–
Cc1ncc(CO)c(CO)c1O [PYRIDOXINE],–,–,pKa [5]: 5
CNC(=O)c1ccccc1O,–,8,–
CN1C(C(=O)Nc2ccccn2)=C(O)c2sc(Cl)cc2S1(=O)=O [LORNOXICAM],< 2,–,–
NC(=O)c1ncn([C@@H]2O[C@H](CO)[C@@H](O)[C@H]2O)c1O [MIZORIBINE],–,–,pKa [6]: 6.5
Cc1cc(NC(=O)C2=C(O)c3ccccc3S(=O)(=O)N2C)no1 [ISOXICAM],< 2,–,–
CN1C(C(=O)Nc2ccccn2)=C(O)c2ccccc2S1(=O)=O [PIROXICAM],–,–,logP [7]: 4
N[C@@H](Cc1cc(I)c(Oc2ccc(O)c(I)c2)c(I)c1)C(=O)O [LIOTHYRONINE],–,–,logP [7]: 4.1
CCc1cc(/C(C)=N/OCc2ccc(C3CCCCC3)c(C(F)(F)F)c2)ccc1CN1CC(C(=O)O)C1 [SIPONIMOD],–,–,logP [7]: 8.9
CCCC1C(=O)N2C(N(C)C)=Nc3ccc(C)cc3N2C1=O (stereo unspecified) [APAZONE],< 2,–,–
N[C@@H](Cc1cc(I)c(Oc2cc(I)c(O)c(I)c2)c(I)c1)C(=O)O [LEVOTHYROXINE],–,–,logP [7]: 5.4

# Second part, led by results:
pKa [1],pKa [2],SMILES,other results
2.9,–,COc1cccc(CNC(=O)c2ncccc2OC)c1,–
2.3,7.9,CC(C)CCNC(=O)c1ncccc1O,pKa [3]: 2.4; pKa [4]: 7.85
< 2,6.8,O=C(NC1CCCCC1)c1nccc(Cl)c1O,–
2.2,–,O=C(NC1CCCCC1)c1ncccc1O,–
< 2,8.5,Cc1ccnc(C(=O)NC2CCCCC2)c1O,–
2.2,–,CCOC(=O)CNC(=O)c1ncccc1O,–
2.3,9.1,COc1ccnc(C(=O)NC2CCCCC2)c1O,–
